In the METLIN SMRT retention time set (Domingo-Almenara et al. 2019):

assay: gradient 5% acetonitrile 3 min, to 50% in 2 min, to 85% in 15 min, held 3 min, 100 µL/min; conditions: column: Zorbax Extend-C18 2.1 x 50 mm; eluents: water / acetonitrile, 0.1% formic acid
Method in brief: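 Using water and acetonitrile that each contained 0.1% formic acid, mixtures of ~100 pure standards were separated at 100 μL/min on a Zorbax Extend-C18 column (2.1 × 50 mm, 1.8 μm). The HPLC fed a quadrupole time-of-flight mass spectrometer working in positive and negative ionization mode, with dead and dwell volumes of 40 μL and 900 μL. Data were acquired over 3 months. Retention time was read from computationally picked adduct peaks after manual inspection of each.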

For `CN1CCCCCCN(C(=O)c2cc(CN3CCOCC3)on2)[C@H]2CCC[C@H]2C1=O`, which RP-LC retention time is on record?
Its RP-LC retention time is 614 s.

Which RP-LC retention time does the source give for `CC1CCCN(CCCNC(=O)c2ccc3c(c2)NC(=O)C2CCCN32)C1` (configuration not stated) here?
The RP-LC retention time was 579 s.

Which RP-LC retention time does the source give for `CC(C)c1cc(C2CCCN2C(=O)NC2CCCC2)on1` (configuration not stated) here?
Its RP-LC retention time is 823 s.

With `CCOC(=O)c1c(C)[nH]c(CCC(=O)NCc2cccs2)c1C` as the compound, how does the RP-LC retention time read?
Its RP-LC retention time is 746 s.

For `COc1cc(NC(=O)Cc2csc3nc(-c4ccccc4)cn23)cc(OC)c1`, which RP-LC retention time is on record?
The RP-LC retention time was 795 s.

With `CCCS(=O)(=O)Nc1cccc(-c2cn3ccc(C)cc3n2)c1` as the compound, how does the RP-LC retention time read?
Its RP-LC retention time is 614 s.

With `COCC1CN(S(=O)(=O)c2ccc(C)c(F)c2)CC12CCNCC2` (configuration not stated) as the compound, how does the RP-LC retention time read?
Its RP-LC retention time is 643 s.

For `Cn1c(C2CCN(C(=O)Nc3ccc(F)cc3F)CC2)cc(=O)n2nccc12`, which RP-LC retention time is on record?
The RP-LC retention time was 647 s.

With `CCS(=O)(=O)c1nc2ccc(NS(=O)(=O)c3ccccc3)cc2s1` as the compound, how does the RP-LC retention time read?
Its RP-LC retention time is 838 s.

For `Cc1ccc(F)cc1NC(=O)c1c(O)c2cccnc2n(-c2ccc(F)cc2)c1=O`, which RP-LC retention time is on record?
The RP-LC retention time was 1290 s.

Which RP-LC retention time does the source give for `O=C(Cc1ccc(Br)cc1)NC1CCN(c2cc(-c3cccs3)[nH]n2)C1` (configuration not stated) here?
Its RP-LC retention time is 767 s.

For `CSc1ccc(CNC(=O)c2c(C)sc3ccn(C)c(=O)c23)cc1`, which RP-LC retention time is on record?
Its RP-LC retention time is 784 s.

With `O=C(NCc1cccnc1)C1CCCN(c2ncnc3c2nc2n3CCCCC2)C1` (configuration not stated) as the compound, how does the RP-LC retention time read?
The RP-LC retention time was 577 s.

Which RP-LC retention time does the source give for `CN(Cc1ccccc1)S(=O)(=O)c1cc2c3c(c1)CCC(=O)N3CCC2` here?
Its RP-LC retention time is 926 s.

Which RP-LC retention time does the source give for `O=C(Nc1ccc2c(c1)OCCO2)N1CCCn2nc(-c3ccncc3)cc2C1` here?
The RP-LC retention time was 590 s.

Which RP-LC retention time does the source give for `c1coc(-c2nnc(Nc3nc4cc5c(cc4s3)OCO5)o2)c1` here?
The RP-LC retention time was 694 s.

Which RP-LC retention time does the source give for `CCNC(=O)c1n[nH]c2c1CN(C(=O)c1cc(F)ccc1F)CC2` here?
Its RP-LC retention time is 648 s.

Which RP-LC retention time does the source give for `O=C1CCCc2cc(S(=O)(=O)N3CCN(c4ccccn4)CC3)ccc2N1` here?
The RP-LC retention time was 589 s.

For `O=C(NCCCn1ncccc1=O)c1coc(NC(=O)c2cnccn2)n1`, which RP-LC retention time is on record?
Its RP-LC retention time is 554 s.

For `Cc1nc(C2CCOCC2)n(C2CCN(S(=O)(=O)c3cccc(Cl)c3)C2)n1` (configuration not stated), which RP-LC retention time is on record?
The RP-LC retention time was 738 s.

With `COCCCNC(=O)CSc1nccc2c1ccn2Cc1ccccc1` as the compound, how does the RP-LC retention time read?
The RP-LC retention time was 683 s.

For `Cc1ccc(-c2nc3cccnc3n2C2CCN(S(=O)(=O)c3cccnc3)C2)cc1` (configuration not stated), which RP-LC retention time is on record?
Its RP-LC retention time is 728 s.

Which RP-LC retention time does the source give for `CCN1CCn2c(nc3cc(C(=O)NCc4ccccc4C(F)(F)F)ccc32)C1=O` here?
The RP-LC retention time was 741 s.

With `O=S(=O)(c1ccccc1)N1CCc2nc(-c3ccc(Cl)cc3)ncc2C1` as the compound, how does the RP-LC retention time read?
Its RP-LC retention time is 1170 s.

With `COC1CCC12CCN(S(=O)(=O)c1ccc(F)c(C)c1)CC2` (configuration not stated) as the compound, how does the RP-LC retention time read?
The RP-LC retention time was 1030 s.

Which RP-LC retention time does the source give for `CC1(C(=O)NCc2ccc(F)cc2)CN(S(C)(=O)=O)CC(=O)N1CCCc1ccccc1` (configuration not stated) here?
Its RP-LC retention time is 882 s.

Which RP-LC retention time does the source give for `CCOc1ccccc1NC(=O)C1CCc2nc(N3CCOCC3)ncc2C1` (configuration not stated) here?
The RP-LC retention time was 777 s.

With `CCc1nnc([C@@H]2CC(F)(F)CN2C(=O)Cn2ccc(C)n2)o1` as the compound, how does the RP-LC retention time read?
Its RP-LC retention time is 646 s.

For `CCOc1ccc(/C=C/C(=O)Nc2nc(-c3ccc(C)cc3)cs2)cc1OC`, which RP-LC retention time is on record?
Its RP-LC retention time is 1150 s.

Which RP-LC retention time does the source give for `COCCNC(=O)N1CCCCC1c1nncn1Cc1ccccc1` (configuration not stated) here?
The RP-LC retention time was 539 s.

For `Cc1ccc(CNC(=O)c2ccc3c(c2)CC(=O)N3C)o1`, which RP-LC retention time is on record?
The RP-LC retention time was 693 s.

For `Cc1ccc(-c2ncc3c(=O)n(CC(=O)N4CCCC4)c(=O)n(C)c3n2)cc1`, which RP-LC retention time is on record?
Its RP-LC retention time is 888 s.

Which RP-LC retention time does the source give for `Cc1ccnn1-c1ccc(SCC(=O)Nc2cccc(F)c2)nn1` here?
Its RP-LC retention time is 870 s.

For `Cc1ccc(-c2noc(-c3cccc(S(=O)(=O)Nc4cccc(C#N)c4)c3)n2)cc1`, which RP-LC retention time is on record?
Its RP-LC retention time is 1160 s.

With `O=C(NCC(O)(c1ccccc1)C(F)(F)F)C(=O)Nc1ccon1` (configuration not stated) as the compound, how does the RP-LC retention time read?
Its RP-LC retention time is 738 s.

Which RP-LC retention time does the source give for `Cc1cccc(CN2CCCn3nc(C(=O)NC4CC4)cc3C2=O)c1` here?
Its RP-LC retention time is 744 s.

Which RP-LC retention time does the source give for `O=C(Nc1cccc(OCc2nnc(-c3ccccc3)o2)c1)c1cnccn1` here?
Its RP-LC retention time is 825 s.

With `O=C(NCc1cccs1)C(=O)NCC1(c2cccs2)CC1` as the compound, how does the RP-LC retention time read?
Its RP-LC retention time is 860 s.

For `Cc1ccc(CN2CC(Oc3ccc(-c4noc(-c5ccncc5)n4)cc3)C2)o1`, which RP-LC retention time is on record?
Its RP-LC retention time is 681 s.

For `Cc1c(CCC(=O)O)c(C)n2c(nc3ccccc32)c1C#N`, which RP-LC retention time is on record?
The RP-LC retention time was 593 s.

For `CCOC(=O)c1cc(C2CC2)nc2c1c(=O)n(CC(=O)NC1CCCC1)c(=O)n2C`, which RP-LC retention time is on record?
Its RP-LC retention time is 952 s.

For `Cc1ccc(-c2nnc(CC(=O)NCC3CCCO3)o2)cc1` (configuration not stated), which RP-LC retention time is on record?
The RP-LC retention time was 667 s.

For `Cc1ccc(CNC(=O)Cn2nc(C)c3nn(-c4ccccc4)c(-n4cccc4)c3c2=O)o1`, which RP-LC retention time is on record?
Its RP-LC retention time is 946 s.

Which RP-LC retention time does the source give for `O=c1ccc(-c2ccc(F)cc2)nn1CCc1nc(-c2ccc(F)c(Br)c2)no1` here?
Its RP-LC retention time is 1120 s.

Which RP-LC retention time does the source give for `COc1cccc(-c2cn3ccn(-c4ccc(F)c(F)c4)c(=O)c3n2)c1` here?
The RP-LC retention time was 844 s.

With `Cc1ccccc1-c1noc(N2CCC(C(=O)NCc3ccc4c(c3)OCO4)CC2)n1` as the compound, how does the RP-LC retention time read?
The RP-LC retention time was 942 s.

With `CCCn1c(=O)sc2cc(S(=O)(=O)N3CCC(C(=O)Nc4ccc(F)cc4C)CC3)ccc21` as the compound, how does the RP-LC retention time read?
Its RP-LC retention time is 974 s.

With `CC(C)n1cnc2ccc(-c3noc(-c4cccc(F)c4)n3)cc21` as the compound, how does the RP-LC retention time read?
Its RP-LC retention time is 810 s.

With `Cc1ccc(CNC(=O)CCc2nc3c(C)cccc3c(=O)n2C)cc1C` as the compound, how does the RP-LC retention time read?
The RP-LC retention time was 892 s.

For `Cn1c(CNC(=O)C2CCC2)nc2c1CN(S(=O)(=O)c1ccc(Cl)s1)CC2`, which RP-LC retention time is on record?
The RP-LC retention time was 666 s.

For `COc1ncccc1C(=O)Nc1ccc2c(c1)CCC(=O)N2`, which RP-LC retention time is on record?
The RP-LC retention time was 641 s.

For `CCN(Cc1ccccc1)c1ncc(NC(=O)c2ccccc2Cl)cc1C(=O)O`, which RP-LC retention time is on record?
Its RP-LC retention time is 723 s.

Which RP-LC retention time does the source give for `Cc1ccc(C)c(Cn2nc3c(S(=O)(=O)N4CCc5ccccc5C4)cccn3c2=O)c1` here?
The RP-LC retention time was 1070 s.

For `O=C(c1cc2ccccc2[nH]1)N1CCN(c2cc(-c3ccccc3)[nH]n2)CC1`, which RP-LC retention time is on record?
Its RP-LC retention time is 792 s.

For `CN(C)[C@@H]1CN(C(=O)c2n[nH]c3ccccc23)C[C@H]1CO`, which RP-LC retention time is on record?
Its RP-LC retention time is 552 s.

With `Cc1ccccc1CN1CCc2nc(N3CCN(c4ccccc4F)CC3)ncc2C1` as the compound, how does the RP-LC retention time read?
The RP-LC retention time was 796 s.

Which RP-LC retention time does the source give for `O=C1[C@H]2CN(Cc3cccc(F)c3F)C[C@H]2C(=O)N1Cc1ccc2c(c1)OCO2` here?
Its RP-LC retention time is 919 s.

Which RP-LC retention time does the source give for `Cc1ccc(NC(=O)N2CCN(c3cc(-c4ccncc4)[nH]n3)CC2)c(C)c1` here?
The RP-LC retention time was 615 s.

Which RP-LC retention time does the source give for `COCCN1CCC(N2CCN(S(=O)(=O)c3ccc(F)c(Cl)c3)CC2)C1=O` (configuration not stated) here?
The RP-LC retention time was 620 s.

Which RP-LC retention time does the source give for `Cc1ccc(CCNC(=O)C2CCCN2S(=O)(=O)c2ccc3c(c2)C(C)(C)C(=O)N3C)cc1` (configuration not stated) here?
Its RP-LC retention time is 896 s.

With `CCc1ccc(-c2noc(Cn3c(=O)n(-c4cccc(C)c4)c(=O)c4sccc43)n2)cc1` as the compound, how does the RP-LC retention time read?
The RP-LC retention time was 1150 s.

Which RP-LC retention time does the source give for `CCOc1ccc(CCNC(=O)C2CCCN(c3nccc(C)n3)C2)cc1OCC` (configuration not stated) here?
The RP-LC retention time was 767 s.

Which RP-LC retention time does the source give for `O=C(NCC1CCS(=O)(=O)C1)c1ccc2nsnc2c1` (configuration not stated) here?
Its RP-LC retention time is 609 s.

For `COc1cc(F)ccc1-c1ccnc2nc(CC(C)C)nn12`, which RP-LC retention time is on record?
Its RP-LC retention time is 862 s.

With `CC(=O)N1CCC2(CC1)CC(CC(=O)O)CCO2` (configuration not stated) as the compound, how does the RP-LC retention time read?
The RP-LC retention time was 588 s.

With `CC(C)n1cnc2ccc(-c3noc(-c4ccc(F)cc4)n3)cc21` as the compound, how does the RP-LC retention time read?
Its RP-LC retention time is 742 s.

Which RP-LC retention time does the source give for `O=C(Nc1ccccc1)C(=O)c1ccc[nH]1` here?
The RP-LC retention time was 812 s.
